We go through seven compounds from US7994185B2, “Benzene sulfonamide thiazole and oxazole compounds” (Glaxo Smith Kline LLC, priority 2008, dated 2011).

Test [1] concerns the target T1, BRAFV600E full-length (amino acids 2-766) (Homo sapiens, UniProt P15056, V600E).
T1 construct: His6-tagged BRAFV600E full-length (amino acids 2-766); His6; made in house; host or cells: baculovirus expression system (insect cells)
The test is described as follows: B-Raf Accelerated MEK ATPase assay (BRAMA). The note with it: categorized. The class given is biochemical. In a few lines: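 Coupled-enzyme readout: ADP generated by MEK-mediated ATP hydrolysis, uncoupled from ERK phosphorylation, is linked to NADH oxidation through pyruvate kinase and lactate dehydrogenase.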

Test [2] deals with Human colon tumor cells (Colo205). Nature of the test: Cell growth inhibition assay (CellTiter-Glo), Colo205. The test is classed as cell-based. In a few lines:
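Luminescent ATP read-out (CellTiter-Glo) served as a proxy for cell number; percent growth inhibition was calculated against DMSO vehicle wells. Cells were treated for 3 days at 37 °C with serially diluted compound, 0.2% DMSO final.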
(In general: ATP-based viability assays read luminescence as a measure of living cells.)

Test [3] relates to Human melanoma cancer cells (SK-MEL-28). Nature of the test: Cell growth inhibition assay (CellTiter-Glo), SK-MEL-28. The class given is cell-based.
Where [4] appears, read: B-Raf Activity, Table 1a, highest pIC50 for the one or more runs.
The mark [5] stands for this setting: B-Raf pIC50, Table 1b, later runs, average pIC50 for the one or more runs.
[6] abbreviates: COLO 205, 72 h, Table 2a, 3 days incubation, read-out: Activity in Colo205 Tumor Cells.
Where [7] appears, read: COLO 205, Table 2b, later runs, average for the one or more runs, categorized, read-out: IC50 for Colo205.
Setting [8] is: SK-MEL-28, 72 h, Table 3a, 3 days incubation, read-out: Activity in SK-MEL-28 Tumor Cells.
Setting [9] is: SK-MEL-28, Table 3b, later runs, average for the one or more runs, categorized, read-out: IC50 for SK-MEL-28.
The mark [10] stands for this setting: Table 1b, later runs, average pIC50 for the one or more runs, read-out: B-Raf pIC50 (converted).

Where two headings read alike, the source gives them in different places. A value given as a limit tells only on which side of the number the result lay.

T1 sequence (P15056 2-766 V600E): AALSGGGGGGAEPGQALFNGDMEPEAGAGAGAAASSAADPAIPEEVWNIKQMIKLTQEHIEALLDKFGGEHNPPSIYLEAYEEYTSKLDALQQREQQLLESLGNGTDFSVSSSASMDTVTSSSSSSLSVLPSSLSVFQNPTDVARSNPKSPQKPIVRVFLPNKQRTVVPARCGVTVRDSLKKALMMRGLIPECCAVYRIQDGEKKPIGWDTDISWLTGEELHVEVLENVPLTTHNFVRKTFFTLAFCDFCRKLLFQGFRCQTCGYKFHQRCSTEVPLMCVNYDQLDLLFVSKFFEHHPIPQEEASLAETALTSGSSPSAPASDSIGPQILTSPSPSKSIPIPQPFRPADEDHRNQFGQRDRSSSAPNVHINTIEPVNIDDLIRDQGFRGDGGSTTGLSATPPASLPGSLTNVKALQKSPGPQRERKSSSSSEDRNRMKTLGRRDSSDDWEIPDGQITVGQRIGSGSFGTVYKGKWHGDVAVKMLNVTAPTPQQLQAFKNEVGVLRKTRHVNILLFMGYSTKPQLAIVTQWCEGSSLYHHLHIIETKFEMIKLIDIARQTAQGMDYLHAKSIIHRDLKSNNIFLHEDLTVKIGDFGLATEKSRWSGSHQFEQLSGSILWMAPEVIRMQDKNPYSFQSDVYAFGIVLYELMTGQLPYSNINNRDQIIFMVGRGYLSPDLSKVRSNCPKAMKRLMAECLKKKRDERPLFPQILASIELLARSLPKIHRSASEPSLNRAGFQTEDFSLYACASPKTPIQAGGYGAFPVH

Take `CC(C)CNc1nccc(-c2sc(C3CCOCC3)nc2-c2ccc(F)c(NS(=O)(=O)c3cc(F)ccc3F)c2)n1` [Example 69, 2,5-Difluoro-N-{2-fluoro-5-[5-{2-[(2-methylpropyl)amino]-4-pyrimidinyl}-2-(tetrahydro-2H-pyran-4-yl)-1,3-thiazol-4-yl]phenyl}benzenesulfonamide]: the IC50 was < 100 nM in test [1] (setting [4]); ≤ 3.16 nM in test [1] (setting [5]); 100 to 1000 nM in test [2] (setting [6]); 100 to 1000 nM in test [2] (setting [7]); 100 to 1000 nM in test [3] (setting [8]); 100 to 1000 nM in test [3] (setting [9]).

Consider `CS(=O)(=O)N1CCC(Nc2nccc(-c3sc(C4CCOCC4)nc3-c3ccc(F)c(NS(=O)(=O)c4cc(F)ccc4F)c3)n2)CC1` [Example 70, 2,5-Difluoro-N-{2-fluoro-5-[5-(2-{[1-(methylsulfonyl)-4-piperidinyl]amino}-4-pyrimidinyl)-2-(tetrahydro-2H-pyran-4-yl)-1,3-thiazol-4-yl]phenyl}benzenesulfonamide], for which the IC50 in test [1] (setting [4]) is < 100 nM; in test [1] (setting [10]), 3.16 to 31.6 nM; in test [2] (setting [6]), 100 to 1000 nM; in test [2] (setting [7]) it was 100 to 1000 nM; in test [3] (setting [8]), 100 to 1000 nM; in test [3] (setting [9]), 100 to 1000 nM.

In the case of `Nc1nccc(-c2sc(C3CCOC3)nc2-c2cccc(NS(=O)(=O)c3c(F)cccc3F)c2F)n1` (stereo not drawn) [Example 71, N-{3-[5-(2-Amino-4-pyrimidinyl)-2-(tetrahydro-3-furanyl)-1,3-thiazol-4-yl]-2-fluorophenyl}-2,6-difluorobenzenesulfonamide], the IC50 was < 100 nM in test [1] (setting [4]); 3.16 to 31.6 nM in test [1] (setting [10]); 100 to 1000 nM in test [2] (setting [6]); 100 to 1000 nM in test [2] (setting [7]); 100 to 1000 nM in test [3] (setting [8]); 100 to 1000 nM in test [3] (setting [9]).

For the compound `Nc1nccc(-c2sc(C3CCC3)nc2-c2cccc(NS(=O)(=O)c3c(F)cccc3F)c2Cl)n1` [Example 72, N-{3-[5-(2-Amino-4-pyrimidinyl)-2-cyclobutyl-1,3-thiazol-4-yl]-2-chlorophenyl}-2,6-difluorobenzenesulfonamide], the IC50 is < 100 nM in test [1] (setting [4]); ≤ 3.16 nM in test [1] (setting [5]); 100 to 1000 nM in test [2] (setting [6]); 100 to 1000 nM in test [2] (setting [7]); < 100 nM in test [3] (setting [8]); < 100 nM in test [3] (setting [9]).

With `CNc1nccc(-c2sc(C(C)C)nc2-c2ccc(F)c(NS(=O)(=O)c3cc(F)ccc3F)c2)n1` [Example 73, 2,5-Difluoro-N-{2-fluoro-5-[5-[2-(methylamino)-4-pyrimidinyl]-2-(1-methylethyl)-1,3-thiazol-4-yl]phenyl}benzenesulfonamide], the IC50 is < 100 nM in test [1] (setting [4]); 3.16 to 31.6 nM in test [1] (setting [10]); > 1000 nM in test [2] (setting [6]); 1000 to 10000 nM in test [2] (setting [7]); > 1000 nM in test [3] (setting [8]); 1000 to 10000 nM in test [3] (setting [9]).

Turning to `CC(C)c1nc(-c2ccc(F)c(NS(=O)(=O)c3cc(F)ccc3F)c2)c(-c2ccnc(NC3CC(C)(C)NC(C)(C)C3)n2)s1` [Example 74, 2,5-Difluoro-N-[2-fluoro-5-(2-(1-methylethyl)-5-{2-[(2,2,6,6-tetramethyl-4-piperidinyl)amino]-4-pyrimidinyl}-1,3-thiazol-4-yl)phenyl]benzenesulfonamide], the IC50 in test [1] (setting [4]) was < 100 nM; in test [1] (setting [5]), ≤ 3.16 nM; in test [2] (setting [6]), < 100 nM; in test [2] (setting [7]), < 100 nM; in test [3] (setting [8]), 100 to 1000 nM; in test [3] (setting [9]), 100 to 1000 nM.

Turning to `CC(C)c1nc(-c2ccc(F)c(NS(=O)(=O)c3cc(F)ccc3F)c2)c(-c2ccnc(NC3CCN(S(C)(=O)=O)CC3)n2)s1` [Example 75, 2,5-Difluoro-N-{2-fluoro-5-[2-(1-methylethyl)-5-(2-{[1-(methylsulfonyl)-4-piperidinyl]amino}-4-pyrimidinyl)-1,3-thiazol-4-yl]phenyl}benzenesulfonamide], the IC50 in test [1] (setting [4]) was < 100 nM; in test [1] (setting [5]), ≤ 3.16 nM; in test [2] (setting [6]) it was < 100 nM; in test [2] (setting [7]) it was < 100 nM; in test [3] (setting [8]) it was < 100 nM; in test [3] (setting [9]) it was < 100 nM.
